{"source": "paper PMC6838110", "about": "(Nature Communications, 2019)", "test_in_all_cases": "PDX efficacy study", "format_in_all_cases": "in vivo, mice", "key": {"[1]": {"test_system": "OV2022 ovarian PDX", "settings": "AZD7648 single agent", "experimental": "(§1) Immunocompromised SCID (C.B-17/IcrHan®Hsd-Prkdc^scid) or Hsd:Athymic Nude-Foxn1^nu female mice (Envigo) were used for tumour implantation. […] When dosed twice daily, the time between the morning and evening doses was 8 h. Targeted irradiation of 2 Gy was delivered over 2 min daily over the first 5 days of treatment. Liposomal doxorubicin (Doxoves) was diluted in physiological saline and intravenously dosed at 2.5 or 5 mg kg^−1 once per week. Olaparib was formulated in 10% DMSO/30% Kleptose and orally dosed at 100 mg kg^−1 once daily. […] Statistical significance was evaluated using a one-tailed t-test. All in vivo studies complied with all relevant ethical regulations for animal testing and research, followed AstraZeneca’s global bioethics policy and received ethical approval from the AstraZeneca ethical committee. HBCx-17 PDX study was carried out at XenTech, France in accordance with French regulatory legislation concerning the protection of laboratory animals. CTG-703, CTG-0828 and CTG-0149 PDX studies were carried out at Champions Oncology, Inc., USA in accordance to the guidelines of the Institutional Animal Care and Use Committee (IACUC) of Champions Oncology and the USA regulatory legislation. CDX and OV2022 PDX studies were conducted in the UK in accordance with UK Home Office legislation, the Animal Scientific Procedures Act 1986 and the Home Office project licences 70/8839, 70/8894 and P0EC1FFDF. […]\n(§2) SCID mice were surgically implanted subcutaneously with tumour fragments from donor mice. Tumours were measured (length x width) by bilateral Vernier calliper measurements and tumour volume calculated using Mousetrap software. Mice were randomized into […]\n(§3) treatment groups when mean tumour volume reached ~0.2 cm 3. AZD7648 was formulated in 0.5% hydroxypropyl methylcellulose (HPMC)/0.1% Tween80 (HPMC/T) and orally dosed (4–100 mg/kg). When dosed twice daily (bid), the time between the morning and evening doses was 8 hours. Targeted irradiation of 2 Gy was delivered over 2 minutes daily over the first 5 days of treatment. Liposomal doxorubicin (Doxoves) was diluted in physiological saline and intravenously dosed at 2.5 or 5 mg/kg once per week. Olaparib was formulated in 10% DMSO/30% Kleptose and orally dosed at 100 mg/kg once daily.\n(§4) HPMC/T. Tumour growth inhibition from start of treatment was assessed by co mparison of the mean change in tumour volume for the control and treated groups, using the Mousetrap application and represented as tumour growth inhibition (TGI). Statistical significance was evaluated using a one-tailed t-test. HBCx-17 PDX study was carried out at XenTech, France in accordance with French regulatory legislation concerning the protection of laboratory animals. CTG-703, CTG-0828 and CTG-0149 PDX studies were carried out at Champions Oncology, Inc., USA in accordance to the guidelines of the Institutional Animal Care and Use Committee (IACUC) of Champions Oncology and the USA regulatory legislation. CDX and OV2022 PDX studies were conducted in the UK in accordance with UK Home Office legislation, the Animal Scientific Procedures Act 1986, and AstraZeneca’s global bioethics policy. Experimental details are outlined in Home […]\n(§5) Blood samples were taken via venipuncture of the tail vein. Whole blood was mixed 1: 5 with PBS and centrifuged at 1500g for 3 minutes at 4°C, and the plasma was extracted […]\n(§6) was prepared using an appropriate dilution factor and compared against an 11-point standard calibration curve (1–10,000 nM) prepared in DMSO and spiked into bl ank plasma. Acetonitrile (100 µL) was added with the internal standard, followed by centrifugation at 3000 rpm for 10 minutes. Supernatant (50 µL) was then diluted in 300 µL water and analysed with ultra-performance liquid chromatography–tandem mass […]\n(§7) Xenograft sample preparation\n(§8) Animals were euthanized and tumour samples snap frozen in liquid nitrogen or fixed in formalin and paraffin embedded for subsequent analysis. Tumour pieces were lysed in […]"}, "[2]": {"test_system": "CTG-703 ovarian PDX", "settings": "AZD7648 single agent", "experimental": "as §1, §2, §3, §4, §5, §6, §7, §8"}, "[3]": {"test_system": "CTG-0828 NSCLC PDX", "settings": "AZD7648 single agent", "experimental": "as §1, §2, §3, §4, §5, §6, §7, §8"}, "[4]": {"test_system": "CTG-0149 H&N PDX", "settings": "AZD7648 single agent", "experimental": "as §1, §2, §3, §4, §5, §6, §7, §8"}, "[5]": {"test_system": "HBCx-17 TNBC PDX", "experimental": "as §1, §2\ntreatment groups when mean tumour volume reached ~0.2 cm 3."}}}
{"molecule": "Cc1cc2ncnn2cc1Nc1ncc2c(n1)n(C1CCOCC1)c(=O)n2C", "note": "[AZD7648]", "values": [{"measurement": "TGI", "setting": "[1]", "result": "60–80%"}, {"measurement": "TGI", "setting": "[2]", "result": "60–80%"}, {"measurement": "TGI", "setting": "[3]", "result": "too variable to assess the group effect"}, {"measurement": "TGI", "setting": "[4]", "result": "60–80%"}, {"measurement": "TGI", "setting": "[5]; AZD7648 75 mg kg−1 bid single agent (olaparib study)", "result": 65, "unit": "%"}, {"measurement": "TGI", "setting": "[5]; AZD7648 single agent (doxorubicin study)", "result": 25, "unit": "%"}]}
